Our source for the T/C values is PubChem BioAssay AID330 (DTP/NCI, 2004).

Structures are written as SMILES. Where “and” joins values, the source holds several entries; their conditions need not be identical. Identical values can stand only once. Inconclusive results and toxic doses are left out.

The test system of the test is P388 leukemia ip, CD2F1 mice, survival T/C. As to the kind of experiment: NCI In Vivo Anticancer Drug Screen. Data for tumor model P388 Leukemia (intraperitoneal) in CD2F1 (CDF1) mice. The settings on record: endpoint: median survival time, higher = longer survival. The procedure, abridged: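 Mice carrying the transplanted tumor received test compound or vehicle. Survival was recorded in each group, and the value is the treated-group measurement divided by that of the vehicle-treated control group.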

[1] abbreviates: dose: 200.0 mg/kg/injection, schedule: Q04DX003 (ip), vehicle: saline with Tween-80.
The mark [2] stands for this setting: dose: 50.0 mg/kg/injection, schedule: Q01DX005 (ip), vehicle: Klucel (hydroxypropylcellulose) (HPC).
Setting [3] is: dose: 100.0 mg/kg/injection, schedule: Q01DX005 (ip), vehicle: Klucel (hydroxypropylcellulose) (HPC).
Where [4] appears, read: dose: 200.0 mg/kg/injection, schedule: Q01DX005 (ip), vehicle: Klucel (hydroxypropylcellulose) (HPC).
Where [5] appears, read: dose: 50.0 mg/kg/injection, schedule: Q01DX005 (ip), vehicle: saline with Tween-80.
Where [6] appears, read: dose: 100.0 mg/kg/injection, schedule: Q01DX005 (ip), vehicle: saline with Tween-80.
The mark [7] stands for this setting: dose: 200.0 mg/kg/injection, schedule: Q01DX005 (ip), vehicle: saline with Tween-80.
[8] abbreviates: dose: 60.0 mg/kg/injection, schedule: Q01DX005 (ip), vehicle: saline.
The mark [9] stands for this setting: dose: 120.0 mg/kg/injection, schedule: Q01DX005 (ip), vehicle: saline.
[10] abbreviates: dose: 100.0 mg/kg/injection, schedule: Q01DX009 (ip), vehicle: Klucel (hydroxypropylcellulose) (HPC).
The mark [11] stands for this setting: dose: 200.0 mg/kg/injection, schedule: Q01DX009 (ip), vehicle: Klucel (hydroxypropylcellulose) (HPC).
Where [12] appears, read: dose: 240.0 mg/kg/injection, schedule: Q01DX005 (ip), vehicle: saline.
Where [13] appears, read: dose: 60.0 mg/kg/injection, schedule: Q01DX005 (ip), vehicle: saline with Tween-80.
The mark [14] stands for this setting: dose: 120.0 mg/kg/injection, schedule: Q01DX005 (ip), vehicle: saline with Tween-80.
[15] abbreviates: dose: 240.0 mg/kg/injection, schedule: Q01DX005 (ip), vehicle: saline with Tween-80.

Turning to `Cc1ccc(S(=O)(=O)N(C)c2cc(Cl)c(C(=O)O)c(Cl)c2)cc1`, the T/C was 99 % of control (dose: 88.0 mg/kg/injection, schedule: Q04DX003 (ip), vehicle: saline with Tween-80); 100 % of control (dose: 133.0 mg/kg/injection, schedule: Q04DX003 (ip), vehicle: saline with Tween-80); 99 % of control under setting [1]; 100 % of control (dose: 300.0 mg/kg/injection, schedule: Q04DX003 (ip), vehicle: saline with Tween-80).
On to `COc1cc2c(c(OC)c1OC)CCC/C2=N\NC(N)=S`, for which the T/C (dose: 100.0 mg/kg/injection, schedule: Q04DX003 (ip), vehicle: Klucel (hydroxypropylcellulose) (HPC)) is 92 % of control; the T/C (dose: 200.0 mg/kg/injection, schedule: Q04DX003 (ip), vehicle: Klucel (hydroxypropylcellulose) (HPC)) is 92 % of control; the T/C (dose: 400.0 mg/kg/injection, schedule: Q04DX003 (ip), vehicle: Klucel (hydroxypropylcellulose) (HPC)) was 86 % of control.
In the case of `CCN(CC)CCOC(=O)C(C)c1cccc2c(=O)cc(-c3ccccc3)oc12` (stereo not drawn), the T/C under setting [2] is 90 % of control, the T/C under setting [3] was 101 % of control and the T/C under setting [4] is 101 % of control.
Consider `CN(C)CCC(C#N)(CCN(C)C)c1ccccc1`, for which the T/C (dose: 50.0 mg/kg/injection, schedule: Q01DX005 (ip), vehicle: saline) was 105 % of control; the T/C (dose: 100.0 mg/kg/injection, schedule: Q01DX005 (ip), vehicle: saline) is 103 % of control; the T/C (dose: 200.0 mg/kg/injection, schedule: Q01DX005 (ip), vehicle: saline) is 106 % of control.
On to `Cc1ccccc1N=Nc1ccc(N=Nc2cc(CN(C)C)c(O)c3ncccc23)c(C)c1`, for which the T/C was 102 % of control under setting [5], 95 % of control under setting [6] and 109 % of control under setting [7].
Regarding `COC1(CO)C(=O)N(C)CC(=O)N1C` (stereo not drawn), the T/C reads like this: under setting [8], 106 % of control; under setting [9], 106 % of control.
As for `C=CCNC(=O)c1cc(N2CC2)c([N+](=O)[O-])cc1[N+](=O)[O-]`, the T/C (dose: 12.5 mg/kg/injection, schedule: Q01DX009 (ip), vehicle: Klucel (hydroxypropylcellulose) (HPC)) was 91 % of control and 97 % of control.
`CCOP(=O)(OCC)Oc1cnn(C)c(=O)c1SCC`: the T/C (dose: 0.78 mg/kg/injection, schedule: Q01DX005 (ip), vehicle: saline) was 98 % of control.
As to `O=C=Nc1ccc(Cc2ccc(N=C=O)cc2)cc1`, the T/C by setting is: under setting [10], 103 % of control; under setting [11], 98 % of control; (dose: 400.0 mg/kg/injection, schedule: Q01DX009 (ip), vehicle: Klucel (hydroxypropylcellulose) (HPC)) 93 % of control.
For the molecule `CCc1cc(-c2cc(CC)[nH]n2)n[nH]1`, the T/C reads like this: under setting [8], 100 % of control; under setting [9], 97 % of control; under setting [12], 95 % of control.
In the case of `O=C1CCCCCCCCCCC1[N+](=O)[O-]` (stereo not drawn), the T/C is 95 % of control under setting [5], 92 % of control under setting [6] and 93 % of control under setting [7].
Regarding `O=C1CC2OCC=C3CN4CCC56c7ccccc7N1C5C2C3CC46` (stereo not drawn), the T/C is, setting by setting: (dose: 0.2 mg/kg/injection, schedule: Q01DX009 (ip), vehicle: saline with Tween-80) 100 % of control; (dose: 0.4 mg/kg/injection, schedule: Q01DX009 (ip), vehicle: saline with Tween-80) 102 % of control; (dose: 0.8 mg/kg/injection, schedule: Q01DX009 (ip), vehicle: saline with Tween-80) 97 % of control.
On to `CC(C)N=C(Nc1ccccc1)c1ccccc1`, for which the T/C is, setting by setting: (dose: 12.5 mg/kg/injection, schedule: Q01DX009 (ip), vehicle: saline with Tween-80) 93 % of control; (dose: 25.0 mg/kg/injection, schedule: Q01DX009 (ip), vehicle: saline with Tween-80) 89 % of control; (dose: 50.0 mg/kg/injection, schedule: Q01DX009 (ip), vehicle: saline + Tween-80 + alcohol) 88 % of control.
`CCc1cccc(C)c1N1C(=O)C(=O)C(c2nc3ccccc3o2)/C(=N\NS(=O)(=O)c2ccc(C)cc2)C1=O` (stereo not drawn): the T/C is 98 % of control under setting [13], 100 % of control under setting [14] and 97 % of control under setting [15].
For the molecule `CCC[CH2][Sn]([N]=C=S)([N]=C=S)[N]=C=S.O=P(c1ccccc1)(c1ccccc1)c1ccccc1.O=P(c1ccccc1)(c1ccccc1)c1ccccc1`, the T/C was 98 % of control (dose: 100.0 mg/kg/injection, schedule: Q04DX003 (ip), vehicle: saline); 100 % of control (dose: 200.0 mg/kg/injection, schedule: Q04DX003 (ip), vehicle: saline); 99 % of control (dose: 400.0 mg/kg/injection, schedule: Q04DX003 (ip), vehicle: saline).
As to `COc1ccc(C(C2C(=O)CC(C)(C)CC2=O)C2C(=O)CC(C)(C)CC2=O)cc1`, the T/C by setting is: under setting [2], 104 % of control; under setting [3], 101 % of control; under setting [4], 106 % of control.
`CCOC(=O)NNC(=O)Nc1ccc(O[Si](C)(C)C)cc1`: the T/C is, setting by setting: under setting [13], 109 % of control; under setting [14], 102 % of control; under setting [15], 100 % of control.
As for `O=C(O)c1oc2ccccc2c1C=C(c1ccccc1)c1ccccc1`, the T/C is 101 % of control (dose: 50.0 mg/kg/injection, schedule: Q01DX009 (ip), vehicle: saline with Tween-80) and 101 % of control (dose: 100.0 mg/kg/injection, schedule: Q01DX009 (ip), vehicle: saline with Tween-80).
Consider `CC/C(C=O)=C\NC(=O)Nc1ccccc1`, for which the T/C is, setting by setting: (dose: 100.0 mg/kg/injection, schedule: Q01DX001 (ip), vehicle: saline with Tween-80) 97 % of control; (dose: 200.0 mg/kg/injection, schedule: Q01DX001 (ip), vehicle: saline with Tween-80) 101 % of control; (dose: 400.0 mg/kg/injection, schedule: Q01DX001 (ip), vehicle: saline with Tween-80) 98 % of control.
Take `COC1OC(CNCCO)C2OC(C)(C)OC12` (stereo not drawn): the T/C was 100 % of control (dose: 50.0 mg/kg/injection, schedule: Q01DX005 (ip), vehicle: saline + alcohol); 100 % of control (dose: 100.0 mg/kg/injection, schedule: Q01DX005 (ip), vehicle: saline + alcohol); 100 % of control (dose: 200.0 mg/kg/injection, schedule: Q01DX005 (ip), vehicle: saline + alcohol).
In the case of `O=C1C=CSc2ccccc2N1`, the T/C was 110 % of control under setting [13], 103 % of control under setting [14] and 101 % of control under setting [15].
Consider `CC(C)(C)OC(=O)NCCCCC(NC(=O)OCC1c2ccccc2-c2ccccc21)C(=O)O` (stereo not drawn), for which the T/C under setting [2] was 109 % of control and the T/C under setting [3] was 93 % of control.
Take `O=[N+]([O-])c1cc2cc(Cl)c3ccccc3c2o1`: the T/C is 100 % of control under setting [2], 102 % of control under setting [3] and 102 % of control under setting [4].
Consider `CC1C(=O)OC2C1CCC1(C)C3(C)C(=O)C=CC213` (stereo not drawn), for which the T/C is 97 % of control (dose: 15.0 mg/kg/injection, schedule: Q01DX005 (ip), vehicle: Klucel (hydroxypropylcellulose) (HPC)); 101 % of control (dose: 30.0 mg/kg/injection, schedule: Q01DX005 (ip), vehicle: Klucel (hydroxypropylcellulose) (HPC)); 104 % of control and 93 % of control (dose: 60.0 mg/kg/injection, schedule: Q01DX005 (ip), vehicle: Klucel (hydroxypropylcellulose) (HPC)).
Turning to `CCOC(=O)C1=C(C)NC(C)=C(C(=O)OCC)C1c1ccccn1`, the T/C is 99 % of control (dose: 50.0 mg/kg/injection, schedule: Q01DX009 (ip), vehicle: Klucel (hydroxypropylcellulose) (HPC)); 97 % of control under setting [10]; 96 % of control under setting [11].
Consider `O=C(Nc1ccccc1)c1ccco1`, for which the T/C is 106 % of control (dose: 100.0 mg/kg/injection, schedule: Q01DX001 (ip), vehicle: Klucel (hydroxypropylcellulose) (HPC)); 102 % of control (dose: 200.0 mg/kg/injection, schedule: Q01DX001 (ip), vehicle: Klucel (hydroxypropylcellulose) (HPC)); 96 % of control (dose: 400.0 mg/kg/injection, schedule: Q01DX001 (ip), vehicle: Klucel (hydroxypropylcellulose) (HPC)).
On to `CC(CN(C)C)C(/C=C/c1ccccc1)=N\NC(=O)c1ccccc1` (stereo not drawn), for which the T/C is 97 % of control under setting [8], 96 % of control under setting [9] and 97 % of control under setting [12].
`O=C1SC2(CCCCC2)SC1=O`: the T/C was 109 % of control (dose: 50.0 mg/kg/injection, schedule: Q04DX003 (ip), vehicle: saline with Tween-80); 104 % of control (dose: 100.0 mg/kg/injection, schedule: Q04DX003 (ip), vehicle: saline with Tween-80); 104 % of control under setting [1].
